Test results published in patent publication US6458960B1, “Sulfonamide derivatives” (Nippon Kayaku Kabushiki Kaisha, priority 1997, dated 2002).
Values after ≈ are worked out from the molar mass of the structure shown.

Columns and labels:
[1] = biological target: T1, microtubule proteins originated from swine brain (Sus scrofa, UniProt P02550+P02554); test: Tubulin polymerization inhibitory test (turbidity measurement); assay type: biochemical; details: microtubule proteins 2 mg/ml, GTP 1 mM, 37° C. for 30 min, absorbance at 340 nm; read-out: IC50 (tubulin polymerization inhibition) (converted)
T1 construct: Microtubule proteins was extracted from swine brain by the Shelansky method; from tissue; host or cells: swine brain
T1 sequence (P02550 whole entry): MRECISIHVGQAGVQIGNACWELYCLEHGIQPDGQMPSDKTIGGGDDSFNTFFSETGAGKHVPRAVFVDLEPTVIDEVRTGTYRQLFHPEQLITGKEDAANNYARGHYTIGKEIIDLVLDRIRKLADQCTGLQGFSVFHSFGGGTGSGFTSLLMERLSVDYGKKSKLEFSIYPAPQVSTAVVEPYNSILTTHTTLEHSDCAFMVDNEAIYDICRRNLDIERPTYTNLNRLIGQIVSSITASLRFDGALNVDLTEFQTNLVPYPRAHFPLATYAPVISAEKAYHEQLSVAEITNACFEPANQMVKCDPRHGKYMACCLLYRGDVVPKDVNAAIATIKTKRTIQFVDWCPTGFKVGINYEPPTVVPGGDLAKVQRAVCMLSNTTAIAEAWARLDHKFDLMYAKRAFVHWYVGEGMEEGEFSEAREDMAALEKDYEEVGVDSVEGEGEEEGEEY
T1 sequence (P02554 whole entry): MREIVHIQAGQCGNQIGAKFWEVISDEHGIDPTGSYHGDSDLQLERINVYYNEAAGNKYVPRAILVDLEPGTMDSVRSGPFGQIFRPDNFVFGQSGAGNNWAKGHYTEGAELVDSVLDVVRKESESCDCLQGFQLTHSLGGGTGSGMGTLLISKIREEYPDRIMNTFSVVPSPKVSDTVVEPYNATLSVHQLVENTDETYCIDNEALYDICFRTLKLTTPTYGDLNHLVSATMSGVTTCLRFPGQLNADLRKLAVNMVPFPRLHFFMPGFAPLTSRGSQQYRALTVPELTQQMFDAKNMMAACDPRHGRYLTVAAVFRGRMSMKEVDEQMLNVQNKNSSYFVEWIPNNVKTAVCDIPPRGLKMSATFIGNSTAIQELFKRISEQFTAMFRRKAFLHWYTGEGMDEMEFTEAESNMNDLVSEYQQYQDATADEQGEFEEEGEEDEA
Experimental: Tubulin polymerization inhibitory test using microtubule proteins originated from swine brain: Microtubule proteins was extracted from swine brain by the Shelansky method(Tanpakusitu jikkenhou, Zoku-Seikagaku Jikken Kouza, Vol.6, “Structure and Function of Cytoskeleton” (1st Vol.), Tokyo Kagaku Dojin). Polymerization of microtubule proteins was assayed by turbidity measurement.
Change in turbidity can be measured by an absorptiometer. The compounds of the present invention were dissolved in dimethylsulfoxide to prepare their test solutions. To 245 μl of a RB solution containing microtubule proteins(2 mg/ml)and GTP(1 mM) was added 5μl of either an above test solution or dimethylsulfoxide to prepare a sample, which was incubated at 37° C. for 30 min. […] Absorbance at 340 nm of the compound was previously measured.
Inhibitory Rate(%)=[1−(T−Cmin)/(Cmax−Cmin)]×100
where T is absorbance of the incubated sample with a test compound, Cmax is absorbance of the incubated sample without the compound, and Cmin is the non-incubated sample without the compound.

[2] = system: A2780 (Humane Ovarian Cancer Cell); test: Anti-tumor in vitro test using A2780 (MTT); assay type: cell-based; details: Homo sapiens, A2780, 72 h, 3 days incubation, absorbance at 540 nm, read-out: IC50 (A2780 growth inhibition)
Experimental: A2780 cells that were suspended on a RPMI 1640 culture medium containing 10% calf serum, penicillin (50 U/ml), and streptomycin (50 μg/ml were seeded in a 96 well flat microplate by 1000 cells (0.2 ml) well, and cultured in a 5% carbon dioxide atmospheric incubator at 37° C. for 1 day. The compounds of the present invention that were dissolved in dimetylsulfoxide anddiluted with a RPMI 1640 containing 10% calf serum to prepare the samples, provided that dimetylsulfoxide was restricted to 0.2% and below in concentration.
The Supernatant liquids of the above A2780 cells wells were removed by aspiration, and then each 0. 2 ml of the prepared samples were added to the wells, which were incubated in a 5% carbon dioxide atmospheric incubator at 37° C. for 3 days. After the incubation, each 0.01 ml of MTT solutions(3-(4,5-dimethylthiazole-2-yl)-2,5-dipheny-ltetra zolium bromide, 5 mg/ml) were added to the wells, which were incubated for another 2 hrs. After the supernatant liquids in the wells were removed by aspiration, the formazans formed in the wells were dissolved in 0.1 ml of dimetylsulfoxide, and absorbances at 540 nm were measured by a micro plate reader to determine indices of live cells counts in the wells.
Inhibitory Rate(%)=[(C−T)/C]×100
where T is absorbance in the well with a test compound and C is absorbance in the well without the compound.

[3] = system: collagen-induced arthritis in mice; test: Prophylactic experiment of collagen-induced arthritis in mice; assay type: in vivo; details: last day of test
Experimental: The suspension of M. tuberculosis H37RA in Freund […] adjuvant (2 mg/ml) was mixed with 0.3% typeII collagen (extracted from bovine articular cartilage, Collagen Gijutsu KensyU Kai) in their equal amounts to form an emulsion, 0.1 ml of which was injected subcutaneously into the base of the tail of mice to sensitize it. After twenty-one days, 0.3% type II collagen was diluted with physiological saline solution to the one sixth concentration of the solution, 0.2 ml of which was injected intraperitoneally to sensitize secondarily. The mice that the first sensitizations caused to fall into arthritis were excluded from the test. The suspensions of the compounds(in the Example 13, 27, and 28) in 0.5% sodium carboxy methylcellulose (CMC—Na) were administrated orally to the test group mice once a day for 5 weeks from the day after the second sensitization. 0.5% CMC—Na solutions were administrated to the control group mice to be compared with. Each group was composed of eight mice. […] Scores and their standards are as follows.
1: Tumefaction or rubor in only one finger(or heel)
2: Tumefaction or rubor in two or above fingers (or heels) or in parts of fore (or hind) paw(s)
3: Tumefaction or rubor in the wholes of fore (or hind) paw(s) including joints
4: Ankylosis in the joints of finger(s) (or heel(s)) or fore (or hind) paw(s)

[4] = 50 mg/kg orally once a day for 5 weeks

Compound	IC50 [1] [µM]	IC50 [2] [µg/mL]	Averaged score (arthritis, 0 to 4 per limb, maximum 16) ([3]; 25 mg/kg orally once a day for 5 weeks)	Averaged score (arthritis, 0 to 4 per limb, maximum 16) [3, 4]
COc1ccc(S(=O)(=O)Nc2ccccc2NC(=O)C2CCCC2)cc1 [Example 25]	4.14	0.05 (≈ 0.134 µM)		
COc1ccc(S(=O)(=O)Nc2ccccc2NC(=O)c2c(C)noc2C)cc1 [Example 13, N-[2-(4-Methoxybenzenesulfonamide)phenyl]-3,5-dimethyl-4-isoxazole Carboxamide]	3.49	0.01 (≈ 0.0249 µM)	2.3 ± 0.8	0.4 ± 0.4
COc1ccc(S(=O)(=O)Nc2ccccc2NC(=O)c2cccn2C)cc1 [Example 26, N-[2-(4-Methoxybenzenesulfonamide)phenyl]-N-methyl-2-pyrrole Carboxamide]	4.93	0.034 (≈ 0.0882 µM)		
Cc1oncc1C(=O)Nc1ccccc1NS(=O)(=O)c1ccccc1 [Example 8, N-[2-(Benzenesulfonamide)phenyl]-5-methyl-4-isoxazole Carboxamide]	644	6.7 (≈ 18.7 µM)		
CCc1noc(C)c1C(=O)Nc1ccccc1NS(=O)(=O)c1ccc(OC)cc1 [Example 27, N-[2-(4-Methoxybenzenesulfonamide)phenyl]-3-ethyl-5-methyl-4-isoxazole Carboxamide]	4.45	0.034 (≈ 0.0818 µM)		1.7 ± 1.1
COc1ccc(S(=O)(=O)Nc2ccccc2NC(=O)c2cn(C)cn2)cc1 [Example 6, N-[2-(4-Methoxybenzenesulfonamide)phenyl]-1-methyl-1H-imidazole-4-carboxamide]	101	0.14 (≈ 0.362 µM)		
COc1ccc(S(=O)(=O)Nc2ccccc2NC(=O)c2cnoc2C)cc1 [Example 1, N-[2-(4-Methoxybenzenesulfonamide)phenyl]-5-methyl-4-isoxazole Carboxamide]	3.1	0.023 (≈ 0.0594 µM)		
COc1ccc(S(=O)(=O)Nc2ccccc2NC(=O)C2CCCCC2)cc1 [Example 22, N-[2-(4-Methoxybenzenesulfonamide)phenyl]-cyclohexyl Carboxamide]	4.89	0.14 (≈ 0.36 µM)		
CCc1noc(CC)c1C(=O)Nc1ccccc1NS(=O)(=O)c1ccc(OC)cc1 [Example 29, N-[2-(4-Methoxybenzenesulfonamide)phenyl]-3,5-diethyl-4-isoxazole Carboxamide]	9.2	0.14 (≈ 0.326 µM)		
COc1ccc(S(=O)(=O)Nc2ccccc2NC(=O)[C@@H]2CCCN2)cc1.Cl [Example 12, N-[2-(4-Methoxybenzenesulfonamide)phenyl]-(L)-prolinamide HCl Salt]		9.7		
COc1ccc(S(=O)(=O)Nc2ccccc2NC(=O)c2nc(C)oc2C)cc1 [Example 5, N-[2-(4-Methoxybenzenesulfonamide)phenyl]-2,5-dimethyl-4-oxazole Carboxamide]		7.2 (≈ 17.9 µM)		
Cc1ccc(S(=O)(=O)Nc2ccccc2NC(=O)c2cnoc2C)cc1 [Example 7, N-[2-(p-Toluenesulfonamide)phenyl]-5-methyl-4-isoxazole Carboxamide]	13.7	0.2 (≈ 0.538 µM)		
CCc1onc(C)c1C(=O)Nc1ccccc1NS(=O)(=O)c1ccc(OC)cc1 [Example 28, N-[2-(4-Methoxybenzenesulfonamide)phenyl]-5-ethyl-3-methyl-4-isoxazole Carboxamide]	3.13	0.013 (≈ 0.0313 µM)		3.0 ± 1.1
COc1ccc(S(=O)(=O)Nc2ccccc2NC(=O)[C@H]2CCCN2)cc1.Cl [Example 17]		1.4		
COc1ccc(S(=O)(=O)Nc2ccccc2NC(=O)c2ncoc2C)cc1 [Example 21, N-[2-(4-Methoxybenzenesulfonamide)phenyl]-5-methyl-4-oxazole Carboxamide]	12.1	0.079 (≈ 0.204 µM)		
COc1ccc(S(=O)(=O)Nc2ccccc2NC(=O)C2CC2)cc1 [Example 23, N-[2-(4-Methoxybenzenesulfonamide)phenyl]-cyclopropyl Carboxamid]	3.46	0.006 (≈ 0.0173 µM)		
COc1ccc(S(=O)(=O)Nc2ccccc2NC(=O)c2c(C)noc2C(C)C)cc1 [Example 30, N-[2-(4-Methoxybenzenesulfonamide)phenyl]-5-isopropyl-3-methyl-4-isoxazole Carboxamide]	7.68	0.16 (≈ 0.373 µM)		
CCc1oncc1C(=O)Nc1ccccc1NS(=O)(=O)c1ccc(OC)cc1 [Example 14, N-[2-(4-Methoxybenzenesulfonamide)phenyl]-5-ethyl-4-isoxazole Carboxamide]	4.11	0.036 (≈ 0.0897 µM)		
COc1ccc(S(=O)(=O)Nc2ccccc2NC(=O)c2cnoc2C)cc1OC [Example 11, N-[2-(3,4-Dimethoxybenzenesulfonamide)phenyl]-5-methyl-4-isoxazole Carboxamide]	359	0.68 (≈ 1.63 µM)		
COc1ccc(S(=O)(=O)Nc2ccccc2NC(=O)C2CSCN2)cc1.Cl (racemic) [Example 15, (±)-N-[2-(4-Methoxybenzenesulfonamide)phenyl]-4-thiazolidine Carboxamide HCl Salt]	4.3	0.025		
COc1ccc(S(=O)(=O)Nc2ccccc2NC(=O)C2CCCCN2)cc1.Cl (racemic) [Example 20, (±)-N-[2-4-Methoxybenzenesulfonamide)phenyl]-2piperidine Carboxamide HCl Salt]		6.8		
COc1ccc(S(=O)(=O)Nc2ccccc2NC(=O)c2c(-c3ccccc3)noc2C)cc1 [Example 31, N-[2-(4-Methoxybenzenesulfonamide)phenyl]-5-methyl-3-phenyl-4-isoxazole Carboxamide]		0.3 (≈ 0.647 µM)		
COc1ccc(S(=O)(=O)Nc2ccccc2NC(=O)c2cn(C)nc2C)cc1 [Example 2, N-[2-(4-Methoxybenzenesulfonamide)phenyl]-3-dimethyl-4-(1H-pyrazole)carboxamide]	89.9	0.58 (≈ 1.45 µM)		
COc1ccc(S(=O)(=O)Nc2ccccc2NC(=O)c2csc(C)n2)cc1 [Example 3, N-[2-(4-Methoxybenzenesulfonamide)phenyl]-2-methyl-4-thiazole Carboxamide]	94.2	0.22 (≈ 0.545 µM)		
COc1ccc(S(=O)(=O)Nc2ccccc2NC(=O)c2csnc2C)cc1 [Example 4, N-[2-(4-Methoxybenzenesulfonamide)phenyl]-3-methyl-4-isothiazole Carboxamide]	3.47	0.017 (≈ 0.0421 µM)		
Cc1oncc1C(=O)Nc1ccccc1NS(=O)(=O)c1ccc(F)cc1 [Example 9, N-[2-(4-Fluorobenzenesulfonamide)phenyl]-5-methyl-4-isoxazole Carboxamide]	400	13 (≈ 34.6 µM)		
COc1ccc(S(=O)(=O)Nc2ccccc2NC(=O)C2CCC2)cc1 [Example 24, N-(2-(4-Methoxybenzenesulfonamide)phenyl]-cyclobutyl Carboxamid]	3.19	0.006 (≈ 0.0166 µM)		
COc1ccc(S(=O)(=O)Nc2ccccc2NC(=O)c2c(C)noc2-c2ccccc2)cc1 [Example 32, N-[2-(4-Methoxybenzenesulfonamide)phenyl]-3-methyl-5-phenyl-4-isoxazole Carboxamide]		0.62 (≈ 1.34 µM)		
